For 1 compound, Formed peptide results are on record in patent US20040204577A1, “Novel peptide-forming enzyme gene” (Ajinomoto Co., Inc., priority 2003, published 2004).

Assay [1] deals with microbial cells of Empedobacter brevis strain FERM BP-8113. The assay is described as follows: Production of peptide using microbial cells. Conditions: 1 mL cell suspension (100 g/L) + 1 mL buffer with 200 mM carboxy component (hydrochloride) and 400 mM amino acid; borate buffer pH 9.0, 10 mM EDTA; 18° C., 2 hours. The class given is cell-based. How it is done: A 50 mL medium (pH 6.2) containing 5 grams (g) of glucose, 5 g of ammonium sulfate, 1 g of monopotassium phosphate, 3 g of dipotassium phosphate, 0.5 g of magnesium sulfate, 10 g of yeast extract and 10 g of peptone in 1 liter (L) was transferred to a 500 mL Sakaguchi flask and sterilized at 115° C. for 15 minutes. This medium was then inoculated with one loopful cells of Empedobacter brevis strain FERM BP-8113 (Depositary institution: the independent administrative corporation, National Institute of Advanced Industrial Science and Technology, International Patent Organism Depositary, Address of depositary institution: Chuo Dai-6, 1-1 Higashi 1-Chome, Tsukuba-shi, Ibaraki-ken, Japan, International deposit transfer date: Jul. 8, 2002) that had been cultured at 30° C. for 16 hours in the same medium, followed by shake culturing at 30° C. for 16 hours and 120 strokes/min.

In assay [2] the test system is peptide-forming enzyme (Mono S fraction enzyme). The assay is described as follows: Enzyme substrate specificity (1)-(10), (13), (14): peptide production. The class given is biochemical, Empedobacter brevis. As to conditions: pH 9.0, 25° C., 3 hours. A digest of the protocol:
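Mono S enzyme fraction in 100 mM borate buffer (pH 9.0) with 10 mM EDTA and 100 mM carboxy component (amino acid methyl esters or amides); amine components (L-glutamine, amino acids, amino acid amides or methylamine) at 150 mM, or 200 mM L-glutamine with varied esters. Reactions ran at 25° C for 2–3 hours; 0.1% Tween-80 added for Trp/Tyr-OMe.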

Where a SMILES comes first, the peptide text is derived from it.

Turning to `C[C@H](N)C(=O)N[C@@H](CCC(N)=O)C(=O)O` [L-Ala-L-Gln, L-alanyl-L-glutamine] (H-Ala-Gln-OH), the Formed peptide in assay [1] amounted to 68.0 mM; in assay [2] (100 mM L-alanine methyl ester hydrochloride, L-amino acid 150 mM), 79.3 mM; in assay [2] (L-amino acid amide hydrochloride as carboxy component 100 mM, L-amino acid 150 mM) it was 7.6 mM; in assay [2] (L-amino acid methyl ester hydrochloride 100 mM, 150 mM L-glutamine), 74.6 mM.
